# Results taken from ChEMBL document CHEMBL1821675, “The selective P-TEFb inhibitor CAN508 targets angiogenesis” (Eur J Med Chem, 2011).
# Activity calls are given as the source filed them. The calls are words filed in the database; no cut-off is given here.
# Columns and labels:
# [1] = target: Receptor-interacting serine/threonine-protein kinase 2 (Homo sapiens) (UniProt O43353); experiment: Inhibition of RIPK2 assessed as residual activity at 10 uM by radioactivity assay in presence of 20 uM ATP
# [2] = target: Serine/threonine-protein kinase Chk2 (Homo sapiens) (UniProt O96017); experiment: Inhibition of CHK2 assessed as residual activity at 10 uM by radioactivity assay in presence of 20 uM ATP
# [3] = target: Homeodomain-interacting protein kinase 1 (Homo sapiens) (UniProt Q86Z02); experiment: Inhibition of HIPK1 assessed as residual activity at 10 uM by radioactivity assay in presence of 20 uM ATP
# [4] = target: Serine/threonine-protein kinase BRSK2 (Homo sapiens) (UniProt Q8IWQ3); experiment: Inhibition of BRSK2 assessed as residual activity at 10 uM by radioactivity assay in presence of 50 uM ATP
# [5] = test system: NCI-H23; experiment: Cytotoxicity against human NCI-H23 cells; format: functional
# [6] = test system: NCI/ADR-RES; experiment: Cytotoxicity against human NCI/ADR-RES cells; format: functional
# [7] = target: Protein kinase C zeta type (Homo sapiens) (UniProt Q05513); experiment: Inhibition of PKCzeta assessed as residual activity at 10 uM by radioactivity assay in presence of 5 uM ATP
# [8] = Antiangiogenic activity in VEGF-stimulated HMEC1 assessed as reduction in median length of tube at 20 uM after 16 hrs by photographic analysis; format: functional, Homo sapiens, HMEC-1; parameters: scale not given: the % may be the effect or the level left
# [9] = target: Interleukin-1 receptor-associated kinase 4 (Homo sapiens) (UniProt Q9NWZ3); experiment: Inhibition of IRAK4 assessed as residual activity at 10 uM by radioactivity assay in presence of 20 uM ATP
# [10] = target: Ephrin type-A receptor 2 (Homo sapiens) (UniProt P29317); experiment: Inhibition of EPHA2 assessed as residual activity at 10 uM by radioactivity assay in presence of 50 uM ATP
# [11] = Antiproliferative activity against HMEC1 cells assessed as decrease in cell viability at >50 uM within 72 hrs by calcein AM staining-based fluorescence assay; settings: human, hmec-1, 72 h
# [12] = target: Insulin receptor (Homo sapiens) (UniProt P06213); experiment: Inhibition of IR assessed as residual activity at 10 uM by radioactivity assay in presence of 20 uM ATP
# [13] = test system: 786-0; experiment: Cytotoxicity against human 786-0 cells; format: functional
# [14] = test system: COLO 205; experiment: Cytotoxicity against human COLO205 cells; format: functional
# [15] = target: Dual specificity protein kinase TTK (Homo sapiens) (UniProt P33981); experiment: Inhibition of TTK assessed as residual activity at 10 uM by radioactivity assay in presence of 20 uM ATP
# [16] = target: Proto-oncogene tyrosine-protein kinase Src (Homo sapiens) (UniProt P12931); experiment: Inhibition of Src assessed as residual activity at 10 uM by radioactivity assay in presence of 50 uM ATP
# [17] = target: Mitogen-activated protein kinase kinase kinase 1 (Homo sapiens) (UniProt Q13233); experiment: Inhibition of MEKK1 assessed as residual activity at 10 uM by radioactivity assay in presence of 20 uM ATP
# [18] = test system: CCRF-CEM; experiment: Cytotoxicity against human CCRF-CEM cells; format: functional
# [19] = target: MAP kinase-activated protein kinase 2 (Homo sapiens) (UniProt P49137); experiment: Inhibition of MAPKAP-K2 assessed as residual activity at 10 uM by radioactivity assay in presence of 20 uM ATP
# [20] = target: Serine/threonine-protein kinase PAK 6 (Homo sapiens) (UniProt Q9NQU5); experiment: Inhibition of PAK6 assessed as residual activity at 10 uM by radioactivity assay in presence of 20 uM ATP
# [21] = target: MAP/microtubule affinity-regulating kinase 4 (Homo sapiens) (UniProt Q96L34); experiment: Inhibition of MARK4 assessed as residual activity at 10 uM by radioactivity assay in presence of 50 uM ATP
# [22] = test system: LOX IMVI; experiment: Cytotoxicity against human LOXIMVI cells; format: functional
# [23] = test system: UACC-257; experiment: Cytotoxicity against human UACC257 cells; format: functional
# [24] = test system: HUVEC; experiment: Antiproliferative activity against HUVEC cells assessed as decrease in cell viability at 10 to 40 uM within 72 hrs by calcein AM staining-based fluorescence assay; settings: human
# [25] = target: Calcium/calmodulin-dependent protein kinase type 1 (Homo sapiens) (UniProt Q14012); experiment: Inhibition of CAMK1 assessed as residual activity at 10 uM by radioactivity assay in presence of 50 uM ATP
# [26] = target: Mitogen-activated protein kinase 12 (Homo sapiens) (UniProt P53778); experiment: Inhibition of p38-gamma MAPK assessed as residual activity at 10 uM by radioactivity assay in presence of 5 uM ATP
# [27] = target: Inhibitor of nuclear factor kappa-B kinase subunit beta (Homo sapiens) (UniProt O14920); experiment: Inhibition of IKK-beta assessed as residual activity at 10 uM by radioactivity assay in presence of 5 uM ATP
# [28] = Inhibition of PKA assessed as residual activity at 10 uM by radioactivity assay in presence of 20 uM ATP
# [29] = test system: NCI-H522; experiment: Cytotoxicity against human NCI-H522 cells; format: functional
# [30] = test system: K562; experiment: Cytotoxicity against human K562 cells; format: functional
# [31] = test system: PC-3; experiment: Cytotoxicity against human PC3 cells; format: functional
# [32] = test system: HMEC-1; experiment: Antiangiogenic activity in VEGF-stimulated HMEC1 assessed as reduction in tube nodes after 16 hrs by photographic analysis; format: functional; settings: Homo sapiens
# [33] = test system: OVCAR-3; experiment: Cytotoxicity against human OVCAR3 cells; format: functional
# [34] = Antiangiogenic activity in VEGF-stimulated HMEC1 assessed as reduction in total length of tube at 40 uM after 16 hrs by photographic analysis; format: functional, Homo sapiens, HMEC-1; parameters: scale not given: the % may be the effect or the level left
# [35] = target: Tyrosine-protein kinase BTK (Homo sapiens) (UniProt Q06187); experiment: Inhibition of BTK assessed as residual activity at 10 uM by radioactivity assay in presence of 50 uM ATP
# [36] = target: Mitogen-activated protein kinase 3 (Homo sapiens) (UniProt P27361); experiment: Inhibition of ERK1 assessed as residual activity at 10 uM by radioactivity assay in presence of 5 uM ATP
# [37] = test system: HCT-15; experiment: Cytotoxicity against human HCT15 cells; format: functional
# [38] = target: Casein kinase II subunit alpha (Homo sapiens) (UniProt P68400); experiment: Inhibition of CK2alpha assessed as residual activity at 10 uM by radioactivity assay in presence of 20 uM ATP
# [39] = test system: SK-MEL-5; experiment: Cytotoxicity against human SK-MEL-5 cells; format: functional
# [40] = target: Mitogen-activated protein kinase 14 (Homo sapiens) (UniProt Q16539); experiment: Inhibition of p38alpha MAPK assessed as residual activity at 10 uM by radioactivity assay in presence of 50 uM ATP
# [41] = target: Mitogen-activated protein kinase kinase kinase 11 (Homo sapiens) (UniProt Q16584); experiment: Inhibition of MLK3 assessed as residual activity at 10 uM by radioactivity assay in presence of 20 uM ATP
# Chain of Receptor-interacting serine/threonine-protein kinase 2 (Homo sapiens) (O43353 whole entry): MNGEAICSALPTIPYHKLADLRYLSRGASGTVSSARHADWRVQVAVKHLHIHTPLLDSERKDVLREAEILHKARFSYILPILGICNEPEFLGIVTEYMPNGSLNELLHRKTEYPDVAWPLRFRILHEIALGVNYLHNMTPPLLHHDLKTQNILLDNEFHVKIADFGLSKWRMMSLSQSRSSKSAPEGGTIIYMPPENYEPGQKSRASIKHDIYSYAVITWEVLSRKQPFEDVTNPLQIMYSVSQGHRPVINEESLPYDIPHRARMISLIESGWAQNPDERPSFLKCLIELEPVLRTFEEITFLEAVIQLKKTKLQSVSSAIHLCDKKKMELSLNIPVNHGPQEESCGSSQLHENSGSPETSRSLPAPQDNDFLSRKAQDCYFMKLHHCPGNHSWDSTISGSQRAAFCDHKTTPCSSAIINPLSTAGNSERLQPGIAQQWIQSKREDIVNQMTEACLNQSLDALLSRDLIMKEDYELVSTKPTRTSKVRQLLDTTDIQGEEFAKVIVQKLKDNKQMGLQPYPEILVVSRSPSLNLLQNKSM
# Chain of Tyrosine-protein kinase BTK (Homo sapiens) (Q06187 whole entry): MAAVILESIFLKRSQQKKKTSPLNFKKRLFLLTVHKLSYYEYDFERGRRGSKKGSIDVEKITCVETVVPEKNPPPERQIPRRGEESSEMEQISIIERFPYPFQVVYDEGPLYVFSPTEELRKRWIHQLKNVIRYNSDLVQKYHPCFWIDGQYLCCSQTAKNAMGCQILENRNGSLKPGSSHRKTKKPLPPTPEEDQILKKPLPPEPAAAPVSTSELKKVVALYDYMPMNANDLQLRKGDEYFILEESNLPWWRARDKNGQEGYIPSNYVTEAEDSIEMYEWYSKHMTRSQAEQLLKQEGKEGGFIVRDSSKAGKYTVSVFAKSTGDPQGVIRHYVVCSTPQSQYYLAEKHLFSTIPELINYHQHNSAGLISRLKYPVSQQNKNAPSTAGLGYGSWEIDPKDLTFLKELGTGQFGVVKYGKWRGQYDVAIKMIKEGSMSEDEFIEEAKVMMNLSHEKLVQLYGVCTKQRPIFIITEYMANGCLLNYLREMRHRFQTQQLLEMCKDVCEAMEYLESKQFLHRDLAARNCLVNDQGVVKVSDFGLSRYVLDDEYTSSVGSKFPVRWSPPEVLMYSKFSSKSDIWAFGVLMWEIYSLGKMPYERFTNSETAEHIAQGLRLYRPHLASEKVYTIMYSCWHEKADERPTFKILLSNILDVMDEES
# Chain of Calcium/calmodulin-dependent protein kinase type 1 (Homo sapiens) (Q14012 whole entry, looked up): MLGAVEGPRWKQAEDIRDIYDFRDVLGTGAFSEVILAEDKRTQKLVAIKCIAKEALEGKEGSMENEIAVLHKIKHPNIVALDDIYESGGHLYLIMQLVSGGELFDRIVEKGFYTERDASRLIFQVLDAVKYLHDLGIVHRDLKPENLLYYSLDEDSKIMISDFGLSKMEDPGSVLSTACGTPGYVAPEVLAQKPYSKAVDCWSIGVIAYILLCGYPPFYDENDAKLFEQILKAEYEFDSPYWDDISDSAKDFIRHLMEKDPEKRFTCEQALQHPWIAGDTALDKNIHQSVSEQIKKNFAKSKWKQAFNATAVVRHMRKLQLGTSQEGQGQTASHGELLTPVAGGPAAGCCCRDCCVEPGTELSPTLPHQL
# Chain of Serine/threonine-protein kinase BRSK2 (Homo sapiens) (Q8IWQ3 whole entry): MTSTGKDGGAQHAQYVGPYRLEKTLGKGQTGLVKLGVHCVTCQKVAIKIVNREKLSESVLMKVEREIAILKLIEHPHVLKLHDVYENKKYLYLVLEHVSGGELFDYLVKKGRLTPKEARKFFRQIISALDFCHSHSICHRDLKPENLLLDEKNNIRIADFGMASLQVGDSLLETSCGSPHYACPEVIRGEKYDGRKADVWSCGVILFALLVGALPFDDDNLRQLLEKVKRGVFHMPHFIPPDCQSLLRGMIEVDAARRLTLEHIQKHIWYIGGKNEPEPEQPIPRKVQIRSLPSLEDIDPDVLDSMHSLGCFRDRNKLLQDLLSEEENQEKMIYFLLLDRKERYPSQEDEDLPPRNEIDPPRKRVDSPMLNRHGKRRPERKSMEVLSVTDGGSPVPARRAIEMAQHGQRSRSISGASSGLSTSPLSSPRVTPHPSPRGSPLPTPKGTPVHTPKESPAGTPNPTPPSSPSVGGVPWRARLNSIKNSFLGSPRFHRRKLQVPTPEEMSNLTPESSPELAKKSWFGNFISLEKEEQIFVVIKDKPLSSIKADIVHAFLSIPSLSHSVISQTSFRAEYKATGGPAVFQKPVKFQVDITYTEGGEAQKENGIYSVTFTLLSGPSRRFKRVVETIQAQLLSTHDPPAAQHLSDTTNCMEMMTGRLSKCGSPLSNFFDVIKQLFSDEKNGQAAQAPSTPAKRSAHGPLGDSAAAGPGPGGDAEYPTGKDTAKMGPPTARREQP
# Chain of MAP kinase-activated protein kinase 2 (Homo sapiens) (P49137 whole entry, looked up): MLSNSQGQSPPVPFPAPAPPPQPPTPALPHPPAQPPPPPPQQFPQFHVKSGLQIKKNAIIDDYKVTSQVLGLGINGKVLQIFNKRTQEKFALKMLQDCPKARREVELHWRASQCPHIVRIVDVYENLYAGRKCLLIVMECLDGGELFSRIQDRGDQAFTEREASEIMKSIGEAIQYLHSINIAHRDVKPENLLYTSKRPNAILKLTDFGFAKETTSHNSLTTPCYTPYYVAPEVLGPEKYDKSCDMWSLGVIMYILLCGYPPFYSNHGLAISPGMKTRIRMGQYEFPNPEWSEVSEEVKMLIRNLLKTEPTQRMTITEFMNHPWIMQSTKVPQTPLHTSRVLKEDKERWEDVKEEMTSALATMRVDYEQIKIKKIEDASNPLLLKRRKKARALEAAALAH
# Chain of Serine/threonine-protein kinase Chk2 (Homo sapiens) (O96017 whole entry): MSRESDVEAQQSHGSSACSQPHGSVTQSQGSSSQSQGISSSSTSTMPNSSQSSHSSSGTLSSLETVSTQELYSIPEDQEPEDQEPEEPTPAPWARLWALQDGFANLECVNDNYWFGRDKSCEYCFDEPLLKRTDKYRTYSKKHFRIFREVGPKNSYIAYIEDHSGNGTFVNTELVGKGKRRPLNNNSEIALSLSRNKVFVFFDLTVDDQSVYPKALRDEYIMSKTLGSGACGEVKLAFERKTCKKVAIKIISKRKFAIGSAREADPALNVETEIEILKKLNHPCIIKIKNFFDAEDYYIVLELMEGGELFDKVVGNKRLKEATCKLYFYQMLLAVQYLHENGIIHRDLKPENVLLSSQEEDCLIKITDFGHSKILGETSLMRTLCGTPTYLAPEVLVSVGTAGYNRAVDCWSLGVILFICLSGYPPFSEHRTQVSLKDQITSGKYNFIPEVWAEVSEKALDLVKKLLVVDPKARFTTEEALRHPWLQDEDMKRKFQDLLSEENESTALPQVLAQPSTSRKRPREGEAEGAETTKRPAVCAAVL
# Chain of Homeodomain-interacting protein kinase 1 (Homo sapiens) (Q86Z02 whole entry, looked up): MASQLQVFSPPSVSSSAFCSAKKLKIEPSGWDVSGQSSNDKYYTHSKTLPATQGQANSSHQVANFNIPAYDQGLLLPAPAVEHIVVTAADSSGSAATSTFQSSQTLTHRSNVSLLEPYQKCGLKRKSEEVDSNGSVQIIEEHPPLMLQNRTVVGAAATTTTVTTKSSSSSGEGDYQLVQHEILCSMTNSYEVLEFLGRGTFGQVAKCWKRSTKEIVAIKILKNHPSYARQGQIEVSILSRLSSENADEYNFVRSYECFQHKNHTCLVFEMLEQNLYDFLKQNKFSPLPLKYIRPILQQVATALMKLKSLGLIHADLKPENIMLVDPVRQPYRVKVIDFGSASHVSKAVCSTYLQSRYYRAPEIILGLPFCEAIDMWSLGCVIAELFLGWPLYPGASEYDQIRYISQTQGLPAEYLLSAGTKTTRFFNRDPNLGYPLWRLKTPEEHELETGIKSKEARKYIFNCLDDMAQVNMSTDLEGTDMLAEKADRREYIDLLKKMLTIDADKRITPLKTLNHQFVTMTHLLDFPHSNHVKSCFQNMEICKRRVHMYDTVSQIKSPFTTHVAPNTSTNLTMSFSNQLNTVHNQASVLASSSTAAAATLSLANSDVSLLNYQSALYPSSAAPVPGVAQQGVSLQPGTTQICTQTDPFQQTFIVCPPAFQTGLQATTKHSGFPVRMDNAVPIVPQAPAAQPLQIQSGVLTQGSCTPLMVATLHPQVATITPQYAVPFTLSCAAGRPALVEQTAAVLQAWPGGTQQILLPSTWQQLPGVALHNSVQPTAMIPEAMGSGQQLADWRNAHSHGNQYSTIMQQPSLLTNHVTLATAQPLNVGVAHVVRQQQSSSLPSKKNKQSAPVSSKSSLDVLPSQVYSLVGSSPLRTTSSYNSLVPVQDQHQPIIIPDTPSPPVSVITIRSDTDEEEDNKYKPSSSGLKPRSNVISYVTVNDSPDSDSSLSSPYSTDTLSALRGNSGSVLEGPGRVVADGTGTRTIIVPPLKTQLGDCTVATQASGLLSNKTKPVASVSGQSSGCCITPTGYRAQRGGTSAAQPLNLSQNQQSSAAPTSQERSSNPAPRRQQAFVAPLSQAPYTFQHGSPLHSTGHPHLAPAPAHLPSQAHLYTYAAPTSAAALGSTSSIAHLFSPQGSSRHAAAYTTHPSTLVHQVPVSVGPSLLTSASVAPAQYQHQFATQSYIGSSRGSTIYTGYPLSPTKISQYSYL
# Chain of Casein kinase II subunit alpha (Homo sapiens) (P68400 whole entry, looked up): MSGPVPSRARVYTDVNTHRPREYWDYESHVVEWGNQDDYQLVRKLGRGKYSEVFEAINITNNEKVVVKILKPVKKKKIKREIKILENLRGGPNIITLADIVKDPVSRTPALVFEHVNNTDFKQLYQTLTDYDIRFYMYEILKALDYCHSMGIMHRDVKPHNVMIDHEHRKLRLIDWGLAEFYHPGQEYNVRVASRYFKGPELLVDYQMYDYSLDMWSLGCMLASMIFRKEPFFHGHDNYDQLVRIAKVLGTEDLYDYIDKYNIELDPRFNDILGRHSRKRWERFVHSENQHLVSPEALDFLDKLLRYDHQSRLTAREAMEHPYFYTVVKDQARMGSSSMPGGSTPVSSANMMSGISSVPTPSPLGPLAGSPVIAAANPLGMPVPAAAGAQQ
structure (smiles),measurement,setting,value
Nc1n[nH]c(N)c1/N=N/c1ccc(O)cc1,Activity,[1],57%
same,Activity,[2],57%
same,Activity,[3],106%
same,Activity,[4],62%
same,GI50,[5],19.1 µM
same,GI50,[6],22.5 µM
same,Activity,[7],74%
same,Activity,[8],30%
same,Activity,[9],58%
same,Activity,[10],101%
same,Activity,[11],Non-toxic
same,Activity,[12],78%
same,GI50,[13],26.2 µM
same,GI50,[14],18.9 µM
same,Activity,[15],55%
same,Activity,[16],62%
same,Activity,[17],100%
same,GI50,[18],20 µM
same,Activity,[19],26%
same,Activity,[20],97%
same,Activity,[21],72%
same,GI50,[22],4.1 µM
same,GI50,[23],24.4 µM
same,Activity,[24],Non-toxic
same,Activity,[25],81%
same,Activity,[26],50%
same,Activity,[27],31%
same,Activity,[28],63%
same,GI50,[29],24.3 µM
same,GI50,[30],9.2 µM
same,GI50,[31],20.3 µM
same,Activity,[32],inactive
same,GI50,[33],22.8 µM
same,Activity,[34],30%
same,Activity,[35],41%
same,Activity,[36],115%
same,GI50,[37],24.2 µM
same,Activity,[38],48%
same,GI50,[39],13.9 µM
same,Activity,[40],101%
same,Activity,[41],31%
